Marks after values point to notes of the source that are not given here. Where a SMILES comes first, the peptide text is derived from it.
Legend:
[1] = Competitive microarray selectivity screening with α-2,8/9-PSA; type: binding, Escherichia coli; conditions: 10% competing α-2,8/9-PSA
Description: Competitive microarray screening with α-2,8/9-PSA was conducted in order to assess selective binding of peptides to α-2,8-PSA. The definition of percent selectivity at 10% competing glycan was applied to enable selectivity comparisons amongst a larger set of peptides[25] […] However, the use of an isomeric polymer is a more stringent assessment of selectivity; here, selective binding is guided by three-dimensional conformation and not additionally by differences in functional groups.
Peptide library synthesis, microarray preparation, and microarray screening were performed as described previously[25] with the following specifications. Siglec-related sequences were N-terminally acetylated to match the charge of the corresponding protein fragment. All peptides were printed in triplicate (60 nL spots), and each initial affinity screening was carried out at least three times. Screening was conducted with 10 μM colominic acid (CA; 5 mL per microarray), the Escherichia coli homolog of α-2,8-PSA identical in structure to human-derived PSA[67], and with antibody-based chemiluminescent detection of CA. For selectivity screening, microarrays were challenged with 10 μM CA with 0, 0.1, 1, and 10 μM α-2,8/9-PSA in separate conditions (5 mL total volume each), where molar concentrations were based on molecular weight estimation of synthesized 2,8/9-PSA (details on α-2,8/9-PSA production, purification, and analysis are provided in Supplementary Information). Selectivity screening with monomeric sialic acid was conducted with mass and molar equivalents of N-acetylneuraminic acid (Rose Scientific, Ltd.) along with 10 μM CA (5 mL total volume each). The mass equivalent amount of sialic acid (specifically, 970 μM sialic acid for a given volume of 10 μM CA) was calculated for CA of an average degree of polymerization of 100. For study of pH-dependent binding, affinity screening with CA was performed using PBS buffers of pH 6.0, 7.0, 7.4, and 8.0 (10 mM phosphate, 100 mM NaCl). The impact of NaCl on peptide binding was assessed at pH 7.4 with 0, 100, and 200 mM NaCl. […]

[2] = FA assay with chondroitin sulphate A; conditions: FA assay as for peptide–PSA; triplicate measurements; read-out: KD for binding to CS-A
Description: (§1) a Neu5Ac concentration (µM) b Neu5Ac concentration (µM) c CS-A concentration (µM)
(§2) Supplementary Figure S4. (a–b) Interaction of I-P24 and I-P264 with Neu5Ac as asses sed by fluorescence anisotropy (FA) titrations in the (a) absence or (b ) presence of 500 µM P S A.
(§3) For a given volume, the highest concentration tested (150 mM) is approximately mass […]
(§4) equivalent to 1.5 mM PSA. […]
(§5) except for a small decrease in anisotropy at the highest concentrations of Neu 5Ac, indicating specific peptide binding to PSA. Error bars represent standard deviations from two independent experiments (0.15–15000 µM), with triplicate intra-as say measurements (0.15–150000 µM) .
(§6) (c) FA assay for binding of I-P24 and I-P264 to chondroitin sulphate A (CS-A). […] Anisotropies were determined from triplicate measurements (error bars excluded for clarity). […]
(§7) Asse ssment of selective binding of peptides with the FA assay is only presented in the context of alternative glycans as proof-of-principle above. However, given the comparatively lower sensitivity of microarray screening, FA may be employed for quantifying affinity in various buffers to asses s the effects of various ions, if any, on PSA binding. […]
(§8) (also on this page, place not known: Assessment assess assessed (b) Neu5Ac, PSA. intra-assay µM). assessment experiments, 5Ac (µM)a cNeu5Ac Anisotropy (mA) Anisotropy (mA) Anisotropy (mA)) […]

FA assay with Neu5Ac = type: binding; conditions: absence of PSA; Neu5Ac up to 150 mM; PBS pH 7.4
Description: as §1, §2, §3, §4, §5, §6, §7, §8

[3] = Peptide microarray affinity screening against α-2,8-PSA (colominic acid); type: binding, Escherichia coli; conditions: 10 μM CA
Description: Peptide library synthesis, microarray preparation, and microarray screening were performed as described previously[25] with the following specifications. Siglec-related sequences were N-terminally acetylated to match the charge of the corresponding protein fragment. All peptides were printed in triplicate (60 nL spots), and each initial affinity screening was carried out at least three times. Screening was conducted with 10 μM colominic acid (CA; 5 mL per microarray), the Escherichia coli homolog of α-2,8-PSA identical in structure to human-derived PSA[67], and with antibody-based chemiluminescent detection of CA. For selectivity screening, microarrays were challenged with 10 μM CA with 0, 0.1, 1, and 10 μM α-2,8/9-PSA in separate conditions (5 mL total volume each), where molar concentrations were based on molecular weight estimation of synthesized 2,8/9-PSA (details on α-2,8/9-PSA production, purification, and analysis are provided in Supplementary Information). Selectivity screening with monomeric sialic acid was conducted with mass and molar equivalents of N-acetylneuraminic acid (Rose Scientific, Ltd.) along with 10 μM CA (5 mL total volume each). The mass equivalent amount of sialic acid (specifically, 970 μM sialic acid for a given volume of 10 μM CA) was calculated for CA of an average degree of polymerization of 100. For study of pH-dependent binding, affinity screening with CA was performed using PBS buffers of pH 6.0, 7.0, 7.4, and 8.0 (10 mM phosphate, 100 mM NaCl). The impact of NaCl on peptide binding was assessed at pH 7.4 with 0, 100, and 200 mM NaCl.
Microarray image and data analysis was performed as described. […] Of the triplicate experiments used to generate mean microarray affinity intensities in standard conditions (within each of which 762 peptides were represented in triplicate), 225 out of 762 values in one of these three experiments were derived from raw data previously reported, but were alternatively analysed as stated. Peptide isoelectric points were calculated with the EMBOSS iep program.

CC(=O)N[C@@H](Cc1ccccc1)C(=O)N[C@@H](CCCCN)C(=O)NCC(=O)N[C@@H](CCCNC(=N)N)C(=O)N[C@H](C(=O)N[C@@H](CO)C(=O)N1CCC[C@H]1C(=O)N[C@@H](CCCCN)C(=O)N[C@H](C(=O)NCC(=O)N[C@@H](C)C(=O)N1CCC[C@H]1C(=O)N[C@H](C(=O)N[C@@H](C)C(=O)N[C@H](C(N)=O)[C@@H](C)O)C(C)C)[C@@H](C)O)[C@@H](C)O [I-P24] (Ac-FKGRTSPKTGAPVAT-NH2)
selectivity mark in Table 1 [1]: I-P24* (Peptides with selectivity >80%)
Kd [2]: > 1 mM
binding to Neu5Ac by FA titration (FA assay with Neu5Ac): minimal
change in microarray binding with 200 mM vs 100 mM NaCl ([3]; pH 7.4): did not display any change in binding
microarray binding to PSA without NaCl ([3]; pH 7.4, 0 mM NaCl): detectable binding
microarray binding intensity (rank within library) ([3]; 762-peptide library, three independent screens, triplicate measurements): top 2%

Source: article PMC7203153, “Rational identification and characterisation of peptide ligands for targeting polysialic acid” (Scientific Reports, 2020)
